Results from patent US20030086928A1, “Compositions associated with complex formation and methods of use thereof” (priority 2000, published 2003).

Columns and labels:
[1] = system: phospho (Ser133) CREB in D5 cells; test: Ser133 phosphorylation of CREB in D5 cells (Western blot / immunofluorescence with antiserum 5322); format: cell-based
Experimental: (§1) D5 cells were grown on glass coverslips and stimulated with forskolin and 3-isobutyl-1-methylxanthine (IBMX) or 12-O-tetradecanoyl phorbol acetate (TPA) for 10 minutes. The cells were methanol-fixed at […] for 5 min followed by three 5 min washes in PBS. Cells were blocked for 30 min with 3% BSA in PBS and donkey serum diluted 1:50. Primary antibodies were diluted in 3% BSA/PBS to 1:2000 for the phospho-CREB specific antibody 5322 or 1:100 (3 μg/ml) for the KID/KIX specific antibody. The cells were incubated with the primary antibodies for 1 hr at RT, followed by 3 washes with PBS and a 1 hr incubation with Biotin-SP-conjugated Donkey anti rabbit IgG diluted 1:200 in 3% BSA/PBS. After 3 washes in PBS, Texas Red conjugated Streptavidin was added at 1:200 dilution in 3% BSA/PBS. After one hour incubation, cells were washed 3 times in PBS and mounted in 90% glycerol/PBS containing 1 mg/ml phenylenediamine.
In addition to cAMP, other stimuli such as the phorbol ester TPA can promote Ser133 phosphorylation of CREB; yet these stimuli are unable to induce target gene activation via CBP, reflecting either a block in CREB:CBP complex formation or in the subsequent recruitment of the transcriptional apparatus. […]

[2] = system: somatostatin mRNA in D5 cells; test: Northern blot of somatostatin mRNA in D5 cells; format: cell-based, rat; conditions: 4 hours
Excerpt: In addition to cAMP, other stimuli such as the phorbol ester TPA can promote Ser133 phosphorylation of CREB; yet these stimuli are unable to induce target gene activation via CBP, reflecting either a block in CREB:CBP complex formation or in the subsequent recruitment of the transcriptional apparatus. To evaluate formation of CREB:CBP complexes in vivo, NIH 3T3 cells expressing chromosomal copies of the rat somatostatin gene, hereafter referred to as D5 cells (Montminy et al. (1986) J Neurosci 6:803-813) were used. […] Western blot assays of total CREB and phospho (Ser133) CREB (P-CREB) levels were performed in control (C) or treated D5 cells exposed to either forskolin (F) or TPA (T) for 30 minutes. Northern blot assays were then performed to detect somatostatin (SOM) and tubulin (TUB) mRNA levels in control D5 cells (C) and in D5 cells treated with forskolin (F) or TPA (T) for 4 hours.

[3] = system: T1, CREB:CBP complexes in D5 cells; test: Immunofluorescence of CREB:CBP complexes in D5 cells with αKK antiserum; format: cell-based; conditions: 10 minutes
T1 construct: endogenous in cells; host or cells: D5 cells (NIH 3T3 with rat somatostatin gene)
Experimental: as §1
D5 cells were then treated with forskolin or TPA for 10 minutes.

T1 sequence (Q01147 whole entry): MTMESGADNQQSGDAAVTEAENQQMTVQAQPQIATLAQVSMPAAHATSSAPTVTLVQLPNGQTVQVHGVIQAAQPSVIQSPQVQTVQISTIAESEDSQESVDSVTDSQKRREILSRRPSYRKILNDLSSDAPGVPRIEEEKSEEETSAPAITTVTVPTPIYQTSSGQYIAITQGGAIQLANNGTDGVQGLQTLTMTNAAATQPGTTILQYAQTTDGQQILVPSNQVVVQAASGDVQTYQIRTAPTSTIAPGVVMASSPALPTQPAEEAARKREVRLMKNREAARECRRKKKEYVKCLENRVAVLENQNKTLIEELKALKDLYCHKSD
T1 sequence (P45481 2-2441 limits assumed, further chain): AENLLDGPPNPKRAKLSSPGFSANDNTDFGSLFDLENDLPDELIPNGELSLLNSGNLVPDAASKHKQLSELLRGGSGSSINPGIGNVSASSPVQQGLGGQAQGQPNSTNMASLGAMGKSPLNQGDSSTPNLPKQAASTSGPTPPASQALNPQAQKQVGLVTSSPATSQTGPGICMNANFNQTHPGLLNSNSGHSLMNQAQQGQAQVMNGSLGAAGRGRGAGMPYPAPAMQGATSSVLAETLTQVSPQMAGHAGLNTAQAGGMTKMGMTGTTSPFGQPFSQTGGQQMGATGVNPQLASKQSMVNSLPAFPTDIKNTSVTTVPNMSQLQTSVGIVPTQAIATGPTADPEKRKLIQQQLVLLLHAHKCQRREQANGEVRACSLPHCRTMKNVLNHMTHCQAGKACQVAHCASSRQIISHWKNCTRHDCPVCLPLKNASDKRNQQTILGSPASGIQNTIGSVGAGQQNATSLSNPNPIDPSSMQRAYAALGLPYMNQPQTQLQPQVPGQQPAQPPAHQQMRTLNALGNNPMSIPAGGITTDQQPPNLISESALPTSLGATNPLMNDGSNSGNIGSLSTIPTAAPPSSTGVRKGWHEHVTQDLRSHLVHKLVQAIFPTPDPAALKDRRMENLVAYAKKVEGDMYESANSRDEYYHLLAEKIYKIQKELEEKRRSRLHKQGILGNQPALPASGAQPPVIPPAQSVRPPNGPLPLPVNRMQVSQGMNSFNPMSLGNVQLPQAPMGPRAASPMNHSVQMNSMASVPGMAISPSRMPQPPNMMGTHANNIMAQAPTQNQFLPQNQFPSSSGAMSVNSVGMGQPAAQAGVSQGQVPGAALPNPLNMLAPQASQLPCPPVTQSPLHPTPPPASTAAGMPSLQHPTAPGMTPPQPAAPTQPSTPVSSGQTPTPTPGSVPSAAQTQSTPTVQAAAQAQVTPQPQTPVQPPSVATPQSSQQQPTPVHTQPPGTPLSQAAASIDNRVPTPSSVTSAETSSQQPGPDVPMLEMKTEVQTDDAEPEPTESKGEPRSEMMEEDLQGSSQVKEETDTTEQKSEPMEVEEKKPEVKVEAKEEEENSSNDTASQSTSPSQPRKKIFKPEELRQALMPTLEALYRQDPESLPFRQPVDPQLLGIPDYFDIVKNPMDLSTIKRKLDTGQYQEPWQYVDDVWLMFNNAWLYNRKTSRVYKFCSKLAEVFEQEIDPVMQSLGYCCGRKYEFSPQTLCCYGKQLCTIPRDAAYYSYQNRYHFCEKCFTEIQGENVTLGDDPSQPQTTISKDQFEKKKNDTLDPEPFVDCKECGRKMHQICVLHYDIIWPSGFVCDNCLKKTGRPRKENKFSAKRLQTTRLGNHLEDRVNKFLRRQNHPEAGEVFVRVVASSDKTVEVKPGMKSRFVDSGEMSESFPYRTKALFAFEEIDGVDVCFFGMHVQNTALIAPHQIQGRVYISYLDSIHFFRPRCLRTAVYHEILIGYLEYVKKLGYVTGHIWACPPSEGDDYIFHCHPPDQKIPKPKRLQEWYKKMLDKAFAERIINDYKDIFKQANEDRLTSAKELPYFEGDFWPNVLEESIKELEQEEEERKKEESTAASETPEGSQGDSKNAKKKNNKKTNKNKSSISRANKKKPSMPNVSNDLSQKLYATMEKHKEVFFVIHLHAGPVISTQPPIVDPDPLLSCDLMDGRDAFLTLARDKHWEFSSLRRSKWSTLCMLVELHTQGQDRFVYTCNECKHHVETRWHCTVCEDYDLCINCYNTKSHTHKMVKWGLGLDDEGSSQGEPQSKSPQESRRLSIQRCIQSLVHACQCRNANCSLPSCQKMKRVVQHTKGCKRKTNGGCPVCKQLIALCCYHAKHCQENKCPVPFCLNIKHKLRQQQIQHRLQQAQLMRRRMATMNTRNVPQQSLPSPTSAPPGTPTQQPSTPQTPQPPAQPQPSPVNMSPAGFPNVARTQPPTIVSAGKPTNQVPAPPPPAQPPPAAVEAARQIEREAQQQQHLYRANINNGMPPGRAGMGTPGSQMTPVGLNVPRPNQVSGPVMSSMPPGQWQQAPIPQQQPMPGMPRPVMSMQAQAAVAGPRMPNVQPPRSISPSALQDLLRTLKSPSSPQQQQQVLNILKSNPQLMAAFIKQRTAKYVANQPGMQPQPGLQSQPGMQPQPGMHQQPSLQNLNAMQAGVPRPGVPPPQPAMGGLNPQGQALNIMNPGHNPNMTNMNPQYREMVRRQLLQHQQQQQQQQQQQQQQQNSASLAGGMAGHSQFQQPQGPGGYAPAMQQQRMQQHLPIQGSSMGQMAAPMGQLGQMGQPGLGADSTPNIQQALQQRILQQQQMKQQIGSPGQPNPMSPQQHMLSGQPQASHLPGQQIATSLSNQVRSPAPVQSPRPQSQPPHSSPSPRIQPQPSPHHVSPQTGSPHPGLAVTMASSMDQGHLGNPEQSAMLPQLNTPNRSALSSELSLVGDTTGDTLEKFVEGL

SMILES	accumulation of phospho (Ser133) CREB ([1]; 10 minutes, immunofluorescence)	Ser133 phosphorylation of CREB ([1]; 30 minutes, Western blot with antiserum 5322)	somatostatin mRNA accumulation [2]	CREB:CBP complex formation detected with αKK antiserum [3]
CCCCCCCCCCCCCC(=O)O[C@@H]1[C@@H](C)[C@@]2(O)[C@@H](C=C(CO)C[C@]3(O)C(=O)C(C)=C[C@@H]23)[C@@H]2C(C)(C)[C@]12OC(C)=O [TPA, 12-O-tetradecanoyl phorbol acetate]	comparable levels of Ser133 phosphorylation	induced Ser133 phosphorylation of CREB with comparable stoichiometry to forskolin induction	no discernible effect	no CREB:CBP complexes were detected
C=C[C@@]1(C)CC(=O)[C@]2(O)[C@@]3(C)[C@@H](O)CCC(C)(C)[C@@H]3[C@H](O)[C@H](OC(C)=O)[C@@]2(C)O1 [forskolin]			5 fold	
